Assay results as given in ChEMBL document CHEMBL1136743, “Design, synthesis, and biological evaluation of C9- and C2-substituted pyrazolo[4,3-e]-1,2,4-triazolo[1,5-c]pyrimidines as new A2A and A3 adenosine receptors antagonists” (J Med Chem, 2003).
Values belong to the compound of their own block, whether it stands above or below them.

Legend:
[1] = biological target: T1, Adenosine receptor A3 (Homo sapiens, UniProt P0DMS8); experiment: biochemical
T1 sequence (P0DMS8 whole entry): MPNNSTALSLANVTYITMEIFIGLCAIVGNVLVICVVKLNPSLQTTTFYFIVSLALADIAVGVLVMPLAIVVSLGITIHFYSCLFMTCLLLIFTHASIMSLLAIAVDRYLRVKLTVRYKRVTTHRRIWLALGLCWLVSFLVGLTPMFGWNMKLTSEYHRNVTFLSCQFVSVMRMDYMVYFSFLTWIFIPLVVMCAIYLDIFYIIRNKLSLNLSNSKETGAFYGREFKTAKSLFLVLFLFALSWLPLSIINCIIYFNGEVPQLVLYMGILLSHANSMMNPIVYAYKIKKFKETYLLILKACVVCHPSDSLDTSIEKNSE
Description: (§1) Displacement of [3H]- MRE 308F20 binding from human Adenosine A3 receptor expressed in CHO cells

[2] = biological target: T2, Adenosine receptor A2a (Homo sapiens, UniProt P29274); experiment: biochemical
[3] = biological target: T2, Adenosine receptor A2a; experiment: biochemical; remark: listed apart in the source
[4] = biological target: T3, Adenosine receptor A2b (Homo sapiens, UniProt P29275); experiment: biochemical
T3 sequence (P29275 whole entry): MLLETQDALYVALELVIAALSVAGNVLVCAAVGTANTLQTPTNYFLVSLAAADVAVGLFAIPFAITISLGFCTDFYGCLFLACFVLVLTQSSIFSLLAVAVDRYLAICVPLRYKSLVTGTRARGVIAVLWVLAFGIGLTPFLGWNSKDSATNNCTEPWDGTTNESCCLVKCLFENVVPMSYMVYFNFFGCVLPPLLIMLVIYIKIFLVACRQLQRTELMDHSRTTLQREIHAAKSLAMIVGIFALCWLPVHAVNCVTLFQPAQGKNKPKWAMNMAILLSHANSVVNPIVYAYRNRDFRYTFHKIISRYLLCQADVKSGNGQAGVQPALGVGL
Description: (§2) Displacement of [3H]- DPCPX from human adenosine A2B receptor expressed in HEK293 cells

[5] = biological target: T4, Adenosine receptor A1 (Homo sapiens, UniProt P30542); experiment: biochemical
T4 sequence (P30542 whole entry): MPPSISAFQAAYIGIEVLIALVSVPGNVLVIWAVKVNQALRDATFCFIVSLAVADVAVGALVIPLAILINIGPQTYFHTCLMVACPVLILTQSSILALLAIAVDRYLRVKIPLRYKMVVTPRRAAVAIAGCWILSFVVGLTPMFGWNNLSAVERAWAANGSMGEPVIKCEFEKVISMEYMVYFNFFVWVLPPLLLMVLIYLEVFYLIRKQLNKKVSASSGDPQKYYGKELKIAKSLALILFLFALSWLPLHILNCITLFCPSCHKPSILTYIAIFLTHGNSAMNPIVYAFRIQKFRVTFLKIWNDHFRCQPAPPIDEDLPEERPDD
Description: Displacement of [3H]- DPCPX binding at human Adenosine A1 receptor expressed in CHO cells

[6] = biological target: T1, Adenosine receptor A3
[7] = biological target: T3, Adenosine receptor A2b; experiment: biochemical; remark: listed apart in the source
Description: as §2

[8] = biological target: T2, Adenosine receptor A2a
[9] = biological target: T1, Adenosine receptor A3; settings: cho
Description: as §1

[10] = biological target: T5, Adenosine receptor A2b (Rattus norvegicus, UniProt P29276)
T5 sequence (P29276 whole entry): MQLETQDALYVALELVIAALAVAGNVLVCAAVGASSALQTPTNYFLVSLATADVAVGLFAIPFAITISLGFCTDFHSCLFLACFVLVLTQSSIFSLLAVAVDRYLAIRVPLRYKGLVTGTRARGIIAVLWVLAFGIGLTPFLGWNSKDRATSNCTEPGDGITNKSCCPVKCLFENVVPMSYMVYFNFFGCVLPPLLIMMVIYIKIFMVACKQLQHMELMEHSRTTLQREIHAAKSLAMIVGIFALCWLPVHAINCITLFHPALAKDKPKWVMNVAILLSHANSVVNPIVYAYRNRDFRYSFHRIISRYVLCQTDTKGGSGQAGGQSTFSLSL

T2 sequence (P29274 whole entry): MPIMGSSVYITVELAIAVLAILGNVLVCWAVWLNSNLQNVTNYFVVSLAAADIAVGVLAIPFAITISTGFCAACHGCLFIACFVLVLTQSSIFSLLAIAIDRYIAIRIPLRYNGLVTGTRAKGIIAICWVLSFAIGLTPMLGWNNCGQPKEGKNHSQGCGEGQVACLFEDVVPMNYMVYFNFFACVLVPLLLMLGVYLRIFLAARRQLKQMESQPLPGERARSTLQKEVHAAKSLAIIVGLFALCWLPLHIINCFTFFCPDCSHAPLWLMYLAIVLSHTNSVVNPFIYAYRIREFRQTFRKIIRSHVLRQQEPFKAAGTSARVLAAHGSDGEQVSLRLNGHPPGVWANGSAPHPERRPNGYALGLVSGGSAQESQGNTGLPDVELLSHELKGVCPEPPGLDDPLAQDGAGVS

Ki [1]: > 1000 nM
Structure (SMILES): CSc1c2c(nc(N)n3nc(-c4ccco4)nc23)nn1CCCc1ccccc1

Ki [2]: 21 nM | Ki [1]: 14 nM
Structure (SMILES): CCNc1c2c(nc(NC(=O)Nc3ccc(OC)cc3)n3nc(-c4ccco4)nc23)nn1C [listing 1 of 2 here]

Ki [3]: > 1000 nM | Ki [4]: > 1000 nM | Ki [1]: > 1000 nM | Ki [5]: > 1000 nM
Structure (SMILES): CN1CCN(Cc2ccc(-c3nc4c5cnn(CCc6ccccc6)c5nc(N)n4n3)o2)CC1

Ki [1]: > 1000 nM
Structure (SMILES): CN1CCN(c2c3c(nc(N)n4nc(-c5ccco5)nc34)nn2C)CC1 [listing 1 of 2 here]

Structure (SMILES): CSc1c2c(nc(NC(=O)Cc3ccc4c(c3)OCO4)n3nc(-c4ccco4)nc23)nn1C
IC50 [6]: 466 nM

Ki [1]: > 1000 nM
Structure (SMILES): COc1ccc(CC(=O)Nc2nc3nn(C)c(SC)c3c3nc(-c4ccco4)nn23)cc1

Structure (SMILES): COc1ccc(NC(=O)Nc2nc3nn(C)c(SC)c3c3nc(-c4ccco4)nn23)cc1
IC50 [6]: 813 nM

Ki [3]: > 1000 nM | Ki [4]: > 1000 nM | Ki [1]: > 1000 nM | Ki [5]: > 1000 nM
Structure (SMILES): Nc1nc2c(cnn2CCc2ccccc2)c2nc(-c3ccc(CN4CCOCC4)o3)nn12

Ki [7]: > 1000 nM | Ki [2]: > 1000 nM | Ki [1]: > 1000 nM | Ki [5]: 235 nM
Structure (SMILES): Nc1nc2c(cnn2CCc2ccccc2)c2nc(-c3ccccc3)nn12

IC50 [8]: 14.8 nM | IC50 [6]: 852 nM
Structure (SMILES): CCCSc1c2c(nc(N)n3nc(-c4ccco4)nc23)nn1C

IC50 [8]: 6.1 nM | IC50 [6]: 188 nM
Structure (SMILES): CSc1c2c(nc(N)n3nc(-c4ccco4)nc23)nn1C

Ki [4]: > 1000 nM | Ki [2]: > 1000 nM | Ki [1]: > 1000 nM | Ki [5]: > 1000 nM
Structure (SMILES): CSc1c2c(nc(N)n3nc(-c4ccc(CN5CCN(C)CC5)o4)nc23)nn1C

Ki [2]: > 1000 nM | Ki [1]: > 1000 nM
Structure (SMILES): COc1ccc(NC(=O)Nc2nc3nn(C)c(N4CCN(C)CC4)c3c3nc(-c4ccco4)nn23)cc1

Ki [4]: > 1000 nM | Ki [2]: > 1000 nM
Structure (SMILES): Cn1nc2nc(N)n3nc(-c4ccco4)nc3c2c1Nc1ccc(O)cc1

Ki [4]: 180 nM | Ki [1]: > 1000 nM
Structure (SMILES): CSc1c2c(nc(NC(=O)Cc3ccc(CC(C)C)cc3)n3nc(-c4ccco4)nc23)nn1C

IC50 [6]: 103 nM
Structure (SMILES): CCNc1c2c(nc(N)n3nc(-c4ccco4)nc23)nn1C

Ki [9]: > 1000 nM
Structure (SMILES): CN1CCN(c2c3c(nc(N)n4nc(-c5ccco5)nc34)nn2C)CC1 [listing 2 of 2 here]

IC50 [8]: 61 nM | IC50 [6]: 45 nM
Structure (SMILES): CCNc1c2c(nc(NC(=O)Nc3ccc(OC)cc3)n3nc(-c4ccco4)nc23)nn1C [listing 2 of 2 here]

Ki [10]: > 1000 nM
Structure (SMILES): Nc1nc2c(cnn2CCc2ccccc2)c2nc(-c3ccco3)nn12 [SCH-58261]
